Test results taken from ChEMBL document CHEMBL1143249, “N-alkyl-4-piperidinyl-2,3-diarylpyrrole derivatives with heterocyclic substitutions as potent and broad spectrum anticoccidial agents” (Bioorg Med Chem Lett, 2008).
Activity calls are given as the source filed them. The rule behind the calls is not given here.

Tests used:
Eimeria acervulina [1] = assay: Anticoccidial activity against Eimeria acervulina in chick assessed as reduction in oocyst at 100 ppm, po after 5 days; type: functional; design: scale not given: the % may be the effect or the level left
Eimeria tenella [2] = assay: Anticoccidial activity against Eimeria tenella in chick assessed as reduction in oocyst at 100 ppm, po after 6 days; type: functional; design: scale not given: the % may be the effect or the level left
[3] = target: cGMP-dependent protein kinase (Eimeria tenella, UniProt Q8MMZ8); assay: Inhibition of Eimeria tenella cGMP-dependent protein kinase
Eimeria tenella [4] = assay: Anticoccidial activity against Eimeria tenella in chick assessed as reduction in oocyst at 50 ppm, po after 6 days; type: functional, organism-based
Eimeria acervulina [5] = assay: Anticoccidial activity against Eimeria acervulina in chick assessed as reduction in oocyst at 50 ppm, po after 5 days; type: functional, organism-based

Sequence of cGMP-dependent protein kinase (Q8MMZ8 whole entry): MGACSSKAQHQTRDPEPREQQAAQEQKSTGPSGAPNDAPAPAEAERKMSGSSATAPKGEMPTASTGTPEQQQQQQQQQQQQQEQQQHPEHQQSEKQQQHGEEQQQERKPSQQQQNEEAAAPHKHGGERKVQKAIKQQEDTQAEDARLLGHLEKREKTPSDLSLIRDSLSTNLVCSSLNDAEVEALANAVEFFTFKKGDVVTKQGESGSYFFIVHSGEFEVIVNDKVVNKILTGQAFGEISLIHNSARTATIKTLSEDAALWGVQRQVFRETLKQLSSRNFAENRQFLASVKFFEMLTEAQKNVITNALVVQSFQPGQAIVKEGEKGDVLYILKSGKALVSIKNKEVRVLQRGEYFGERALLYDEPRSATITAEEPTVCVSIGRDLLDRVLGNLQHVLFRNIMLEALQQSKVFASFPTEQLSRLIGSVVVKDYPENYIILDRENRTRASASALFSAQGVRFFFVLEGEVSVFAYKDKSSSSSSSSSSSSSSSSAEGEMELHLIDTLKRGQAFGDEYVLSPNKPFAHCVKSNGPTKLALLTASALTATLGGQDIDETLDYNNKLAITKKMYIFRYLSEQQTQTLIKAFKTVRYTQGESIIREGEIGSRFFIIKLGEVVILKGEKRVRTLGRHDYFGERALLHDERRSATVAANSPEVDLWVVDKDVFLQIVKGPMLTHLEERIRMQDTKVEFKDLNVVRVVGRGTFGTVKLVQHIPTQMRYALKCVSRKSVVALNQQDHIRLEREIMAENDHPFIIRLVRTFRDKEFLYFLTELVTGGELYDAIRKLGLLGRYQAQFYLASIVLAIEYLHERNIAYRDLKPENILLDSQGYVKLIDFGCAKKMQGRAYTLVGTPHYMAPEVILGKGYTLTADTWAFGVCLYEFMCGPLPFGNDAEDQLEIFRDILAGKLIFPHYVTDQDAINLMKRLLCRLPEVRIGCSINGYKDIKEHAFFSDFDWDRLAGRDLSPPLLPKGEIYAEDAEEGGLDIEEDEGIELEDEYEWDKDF

| IC50 [3] | Structure (SMILES) | Activity (Eimeria acervulina [1]) | Activity (Eimeria tenella [2]) | Activity (Eimeria tenella [4]) | Activity (Eimeria acervulina [5]) |
| --- | --- | --- | --- | --- | --- |
| 0.34 nM | CN1C[C@H](O)C[C@H]1CN1CCC(c2cc(-c3ccncc3)c(-c3ccc(F)cc3)[nH]2)CC1 | 50% | 80% | – | – |
| 1.03 nM | COC(=O)N1CCOC(CN2CCC(c3cc(-c4ccncc4)c(-c4ccc(F)cc4)[nH]3)CC2)C1 (stereo unspecified) | 50% | 80% | – | – |
| 0.28 nM | CN1CC[C@H]1CN1CCC(c2cc(-c3ccncc3)c(-c3ccc(F)cc3)[nH]2)CC1 | 80% | 80% | – | – |
| 0.16 nM | O[C@H]1CN[C@H](CN2CCC(c3cc(-c4ccncc4)c(-c4ccc(F)cc4)[nH]3)CC2)C1 | 50% | 80% | – | – |
| 0.07 nM | Fc1ccc(-c2[nH]c(C3CCN(CC4CNCCN4)CC3)cc2-c2ccncc2)cc1 (stereo unspecified) | 50% | 80% | – | – |
| 4.7 nM | COC(=O)N1CCOC(C(=O)N2CCC(c3cc(-c4ccncc4)c(-c4ccc(F)cc4)[nH]3)CC2)C1 (stereo unspecified) | 50% | 50% | – | – |
| 0.36 nM | CCN1C[C@H](O)C[C@H]1CN1CCC(c2cc(-c3ccncc3)c(-c3ccc(F)cc3)[nH]2)CC1 | 50% | 80% | – | – |
| 1.41 nM | CS(=O)(=O)N1CCN(S(C)(=O)=O)C(CN2CCC(c3cc(-c4ccncc4)c(-c4ccc(F)cc4)[nH]3)CC2)C1 (stereo unspecified) | inactive | inactive | – | – |
| 0.67 nM | CN1CCOC(CN2CCC(c3cc(-c4ccncc4)c(-c4ccc(F)cc4)[nH]3)CC2)C1 (stereo unspecified) | 80% | 80% | Active | Active |
| 0.4 nM | CC(CN1CCC1)N1CCC(c2cc(-c3ccncc3)c(-c3ccc(F)cc3)[nH]2)CC1 (stereo unspecified) | 80% | 80% | – | – |
| 0.17 nM | Fc1ccc(-c2[nH]c(C3CCN(CC4CNCCO4)CC3)cc2-c2ccncc2)cc1 (stereo unspecified) | 50% | 80% | – | – |
| 1.01 nM | O=C(CN1CCC(c2cc(-c3ccncc3)c(-c3ccc(F)cc3)[nH]2)CC1)N1CCC1 | 80% | 80% | – | – |
| 0.08 nM | Fc1ccc(-c2[nH]c(C3CCN(CCN4CCC4)CC3)cc2-c2ccncc2)cc1 | 80% | 80% | – | – |
| 0.27 nM | O=C(C1CNCCO1)N1CCC(c2cc(-c3ccncc3)c(-c3ccc(F)cc3)[nH]2)CC1 (stereo unspecified) | 50% | 80% | – | – |
| 1.08 nM | CN1CCN(C)C(CN2CCC(c3cc(-c4ccncc4)c(-c4ccc(F)cc4)[nH]3)CC2)C1 (stereo unspecified) | 50% | 50% | – | – |
| 2.2 nM | CC(=O)N1C[C@H](O)C[C@H]1CN1CCC(c2cc(-c3ccncc3)c(-c3ccc(F)cc3)[nH]2)CC1 | 50% | 80% | – | – |
| 1.7 nM | OC[C@@H]1CCN1CCN1CCC(c2cc(-c3ccncc3)c(-c3ccc(F)cc3)[nH]2)CC1 | 80% | 80% | – | – |
| 2.2 nM | CC(=O)N1CCN(C(C)=O)C(CN2CCC(c3cc(-c4ccncc4)c(-c4ccc(F)cc4)[nH]3)CC2)C1 (stereo unspecified) | inactive | inactive | – | – |
